Holding throughout (assay): growth of human tumour cells (NCI), 48 h
Test [1] concerns COLO 205 colon.
Test [2] deals with HCC-2998 colon.
The test system of test [3] is HCT-15 colon.
Test [4] deals with IGROV1 ovarian.
Test [5] has as its system MALME-3M melanoma.
The subject of test [6] is SF-295 CNS.
The subject of test [7] is SK-MEL-5 melanoma.
In test [8] the test system is SN12C renal.
Test [9] relates to TK-10 renal.
For test [10], the system named is UO-31 renal.

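Protocol summary: plate cells (96-well), add compound at 5 concentrations, incubate 48 h, interpolate endpoints linearly. At the GI50, growth is halved. The concentration for full growth arrest is given as TGI.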

On to `O=C(O)c1ccc(N/C=C2\C(=O)c3ccccc3OC2O)cc1O` (centres undefined), for which the GI50 was 30.5 µg/mL in test [1]; 24.1 µg/mL in test [2]; 6.17 µg/mL in [3]; 12.8 µg/mL in test [4]; 10 µg/mL in test [5]; 5.96 µg/mL in test [6]. For the same molecule, the GI50 is 17.6 µg/mL in test [7], 20.2 µg/mL in [8], 36 µg/mL in [9] and 6.68 µg/mL in test [10]. Besides, the TGI in test [1] stood at 76.4 µg/mL; in test [2], 45.4 µg/mL; in test [3], 26.6 µg/mL; in [4], 47.3 µg/mL; in test [5], 38.9 µg/mL; in [6], 28.7 µg/mL. The TGI in test [7] came out at 37.6 µg/mL; in test [8], 58.8 µg/mL; in test [9], 106 µg/mL; in test [10], 36.4 µg/mL.

`NC1=NC(c2ccc(Cl)cc2)C2=C(N1)/C(=C/c1ccc(Cl)cc1)CCC2` (centres undefined): the GI50 in test [1] is 6.17 µM; in [2], 2.11 µM; in [3] it was 9.13 µM; in test [4], 15 µM; in [5] it was 19.4 µM; in [6], 5.71 µM. Besides, the GI50 was 5.51 µM in [7], 17.3 µM in test [8], 27.4 µM in test [9] and 9.76 µM in test [10]. Also, the TGI was 19.9 µM in [1]; 4.27 µM in [2]; 26.9 µM in [3]; greater than 64.4 µM in test [4]; 50.8 µM in test [5]; 25.8 µM in test [6]. Besides, the TGI in test [7] came out at 12.9 µM; in [8] it was 50.4 µM; in test [9], 86.8 µM; in test [10], 27.9 µM.

With `COc1ccccc1C#Cc1ccccc1C#CCCCCCC#Cc1ccccc1C#Cc1ccccc1OC`, the GI50 is 80.1 µM in test [1]; 18.8 µM in test [2]; 40.9 µM in test [3]; 77.7 µM in test [4]; greater than 100 µM in test [5]; greater than 100 µM in test [6]. Moreover, the GI50 in [7], in test [8], in test [9] and in [10] was greater than 100 µM each time. For the same molecule, the TGI in test [1] was greater than 100 µM; in test [2] it was 69.7 µM; in test [3] it was greater than 100 µM; in test [4], greater than 100 µM; in test [5], greater than 100 µM; in [6] it was greater than 100 µM. Moreover, the TGI in test [7], in [8], in [9] and in test [10] was greater than 100 µM in each case.

For the molecule `COc1cc(-c2nc3sc4c(c3c(=O)[nH]2)CCCCCC4)cc(OC)c1OC`, the GI50 is 1.16 µM in test [1]; 2.41 µM in [2]; 0.649 µM in test [3]; 4.58 µM in [4]; 4.32 µM in test [5]; 0.692 µM in [6]. For the same molecule, the GI50 in test [7] is 0.853 µM; in [8] it was 2.14 µM; in test [9], 13.8 µM; in test [10] it was 2.07 µM. The TGI in test [1] is 10.3 µM; in test [2], greater than 33.2 µM; in test [3] it was greater than 33.2 µM; in test [4], greater than 33.2 µM; in [5] it was 20.5 µM; in [6], 6.53 µM. The TGI in test [7] was 2.96 µM; in [8], greater than 33.2 µM; in [9], greater than 33.2 µM; in test [10], greater than 33.2 µM.

`CCCCOP1(=O)C=C(C)C(=C(Cl)Cl)C(C)=C1` (centres undefined): the TGI is 8.97 µM in [1]; 52.3 µM in test [2]; 40.8 µM in test [3]; 49 µM in [4]; 31.6 µM in test [5]; 25.9 µM in test [6]. The TGI in test [7] is greater than 32.9 µM; in test [8] it was 34.8 µM; in test [9], 44.1 µM; in test [10], 45.3 µM.

For the molecule `C=CC1CC12C(=O)C1OC2(C)C2C(=O)c3c(O)ccc(O)c3C(=O)C12` (centres undefined), the GI50 in test [1] was 1.52 µM; in test [2], 13.8 µM; in [3], 2 µM; in test [4], 3.26 µM; in test [5] it was 1.46 µM; in test [6], 1.39 µM. Also, the GI50 in test [7] is 1.86 µM; in test [8] it was 3.2 µM; in [9], 2.96 µM; in [10], 7.83 µM. The TGI is 17 µM in [1]; 30.1 µM in [2]; 5.05 µM in test [3]; greater than 100 µM in [4]; 4.76 µM in test [5]; 5.55 µM in test [6]. Also, the TGI in test [7] came to 4.97 µM; in test [8], 11.6 µM; in [9] it was 9.38 µM; in test [10], 25.6 µM.

Consider `CCN1c2ccccc2C(Cl)(c2ccc(N(C)C)cc2)c2ccccc21`, for which the GI50 in test [1] is 2.31 µM; in [2] it was 10.9 µM; in test [3] it was 11.9 µM; in test [4] it was 2.61 µM; in test [5] it was 3.33 µM; in [6], 21.7 µM. Besides, the GI50 in test [7] was 3.76 µM; in [8], 4.88 µM; in [9] it was 11.1 µM; in test [10], 1.91 µM. Besides, the TGI in test [1] came out at 7.73 µM; in test [2] it was 23.4 µM; in [3] it was 49.4 µM; in test [4], 7.98 µM; in [5] it was 12.4 µM; in test [6], 73.8 µM. Further, the TGI in test [7] came to 15 µM; in test [8], 19.2 µM; in test [9] it was 29.1 µM; in test [10], 5.27 µM.

Take `S=C1Nc2ccc(Cl)cc2C2(c3ccccc3)N3CCN=C3NN12` (centres undefined): the GI50 is 26.3 µM in test [1]; 67 µM in test [2]; 34 µM in test [3]; 17.4 µM in [4]; 23.5 µM in test [5]; 28.6 µM in [6]. Also, the GI50 is 28.1 µM in [7], 35.3 µM in [8], 35.1 µM in test [9] and 37.5 µM in [10]. Further, the TGI is greater than 100 µM in [1]; greater than 100 µM in test [2]; greater than 100 µM in test [3]; 40.9 µM in test [4]; 78.4 µM in test [5]; greater than 100 µM in test [6]. For the same molecule, the TGI was 45.4 µM in test [7], greater than 100 µM in test [8], greater than 100 µM in test [9] and greater than 100 µM in [10].

Regarding `COc1ccccc1NC(=O)C1=C(C)NC(C)=C(C(=O)Nc2ccccc2OC)C1c1ccc(C)cc1`, the TGI in [1] is 44 µM; in [2], greater than 100 µM; in [3] it was greater than 100 µM; in [4], greater than 100 µM; in [5], greater than 100 µM; in test [6], greater than 100 µM. Besides, the TGI in test [7], in test [8], in [9] and in test [10] was greater than 100 µM each time.

As for `O=Nc1ccc2ccccc2c1O`, the GI50 in [1] is 4.79 µM; in test [2] it was 14.7 µM; in test [3] it was 10.2 µM; in test [4], 2.07 µM; in [5] it was 3.39 µM; in [6], 7.78 µM. Besides, the GI50 in test [7] was 2.71 µM; in test [8] it was 1.9 µM; in test [9], 11.8 µM; in [10] it was 4.99 µM. Also, the TGI worked out at 16.6 µM in test [1]; 29.1 µM in [2]; 30.8 µM in test [3]; 5.91 µM in [4]; 8.51 µM in test [5]; 25.4 µM in [6]. Besides, the TGI turned out to be 8.41 µM in test [7], 5.26 µM in test [8], 24.5 µM in [9] and 21.7 µM in [10].

As to `N#CC1=C(N)NC(=O)NC12Nc1ccccc1S2` (centres undefined), the GI50 in test [1] was 15.8 µM; in [2] it was 35.5 µM; in test [3], 26.7 µM; in test [4], greater than 45.7 µM; in test [5] it was 4.63 µM; in test [6], 26.4 µM. Besides, the GI50 in test [7] is 17.5 µM; in [8] it was 17.6 µM; in test [9], 26.1 µM; in test [10], 36.2 µM. In addition, the TGI in test [1] was greater than 73.1 µM; in [2], greater than 100 µM; in [3], 87 µM; in test [4] it was greater than 74.8 µM; in test [5], 42.5 µM; in test [6], greater than 65.7 µM. The TGI in test [7] was 33.2 µM; in test [8] it was 50.8 µM; in [9], 66 µM; in [10] it was greater than 100 µM.

For the molecule `CC(=O)OC1(C)C(=O)OC1(C)C(C)=O` (centres undefined), the TGI in [1], in [2], in [3], in [4], in [5] and in [6] was greater than 100 µM each time. Also, the TGI in test [7], in test [8], in test [9] and in test [10] was greater than 100 µM throughout.

Take `CC(=O)O/N=C1/C(c2c(O)[nH]c3cc(Br)ccc23)=Nc2ccccc21`: the GI50 is 1.57 µM in [1]; 1.68 µM in test [2]; 0.962 µM in test [3]; 1.27 µM in test [4]; 3.48 µM in [5]; 2 µM in test [6]. The GI50 in [7] is 0.524 µM; in test [8] it was 0.873 µM; in test [9] it was 2.09 µM; in test [10], 0.653 µM. For the same molecule, the TGI in [1] worked out at 3 µM; in [2], 3.08 µM; in test [3], 2.72 µM; in test [4] it was 3.33 µM; in [5] it was 8.42 µM; in [6] it was 5.47 µM. Besides, the TGI in [7] came to 1.33 µM; in test [8], 2.58 µM; in test [9] it was 5.32 µM; in test [10] it was 2.4 µM.

For `CN1CCN(Cc2ccc(NC(=O)c3ccc(C#Cc4c(N)ncc5ccc(F)cc45)cc3)cc2C(F)(F)F)CC1`, the GI50 in [1] is 0.901 µM; in test [2], 0.87 µM; in test [3], 0.892 µM; in test [4] it was 1.13 µM; in test [5] it was 0.945 µM; in test [6], 1.04 µM. For the same molecule, the GI50 in [7] was 0.871 µM; in [8], 0.913 µM; in [9], 0.977 µM; in [10] it was 0.967 µM. Besides, the TGI in [1] came to 1.64 µM; in test [2], 1.62 µM; in test [3] it was 1.74 µM; in test [4], 2.56 µM; in test [5] it was 1.8 µM; in test [6], 2.04 µM. The TGI in [7] was found to be 1.58 µM; in test [8] it was 1.78 µM; in test [9], 1.79 µM; in test [10] it was 2.26 µM.

Consider `O=C(CCl)N1c2ccccc2Sc2ccc3ccccc3c21`, for which the GI50 in [1] is 1.69 µM; in [2], 1.8 µM; in test [3], 1.09 µM; in [4], 0.567 µM; in test [5], 0.352 µM; in test [6], 1.68 µM. Also, the GI50 was 1.6 µM in [7], 1.59 µM in test [8], 1.54 µM in [9] and 0.281 µM in [10]. Moreover, the TGI in [1] was 3.14 µM; in test [2], 3.25 µM; in test [3], 2.53 µM; in [4], 1.5 µM; in test [5], 1.32 µM; in test [6], 3.15 µM. The TGI in test [7] came out at 2.96 µM; in test [8] it was 2.98 µM; in test [9] it was 2.92 µM; in test [10], 1.07 µM.

For the molecule `CCCCCCCCCCCCSC(=N)N`, the GI50 was 1.98 µM in test [1]; 2.31 µM in [2]; 2.96 µM in [3]; 2.77 µM in [4]; 15 µM in test [5]; 2.35 µM in test [6]. Further, the GI50 in [7] is 12.6 µM; in test [8], 8.21 µM; in [9] it was 16.4 µM; in [10], 5.71 µM. Further, the TGI in test [1] came to 3.72 µM; in test [2] it was 5.62 µM; in test [3], 11.5 µM; in test [5] it was 29.5 µM; in test [6], 5.55 µM; in test [7], 28.2 µM. The TGI in test [8] is 21.4 µM; in test [9], 32.3 µM; in test [10] it was 19.8 µM.
